Drawing on patent US20240100170A1, “CYCLIC-AMP RESPONSE ELEMENT BINDING PROTEIN (CBP) AND/OR ADENOVIRAL E1A BINDING PROTEIN OF 300 KDA (P300) DEGRADATION COMPOUNDS AND METHODS OF USE” (CULLGEN (SHANGHAI), INC., priority 2020, published 2024), this text covers inhibition and IC50 for 11 compounds.

One assay deals with P300 (Homo sapiens, UniProt Q09472). Nature of the assay: percentage of inhibition (degradation) of p300 at 10 nM, Tables 2-4. The class given is cell-based. Details: LNCaP or 22RV1 cells that express CBP/P300 proteins were treated with GNE-781 or the bivalent compounds; endogenous in cells; host or cells: LNCaP or 22RV1 (not given). Conditions: read-out: Degradation (10 nM). An outline of the steps: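 Degradation was measured at 10 nM. Cells or tissue were lysed in RIPA with protease and phosphatase inhibitors for 30 min at 4 °C and cleared, and protein was quantified by BCA. Lysates were resolved by SDS-PAGE, detected by chemiluminescent immunoblot, and bands were quantified by densitometry.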

In assay [1] the test system is LNCaP prostate cancer cell. Nature of the assay: LNCaP cell viability (CellTiter-Glo). Conditions: Homo sapiens, 72 h; LNCaP cell viability, 3 days, CellTiter-Glo; Table 4. It is filed as cell-based. The method in brief: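 LNCaP cells (5000/well, RPMI 1640 + 10% FBS, 37 °C) treated with compounds in 12-point 3-fold serial dilution for three days. Viability read by CellTiter-Glo luminescence, normalized to untreated cells; IC50 from least-squares nonlinear regression.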

Read-outs that look alike come from different tables or passages of the source. Some results are limits rather than exact numbers.

Sequence of P300 (Q09472 whole entry): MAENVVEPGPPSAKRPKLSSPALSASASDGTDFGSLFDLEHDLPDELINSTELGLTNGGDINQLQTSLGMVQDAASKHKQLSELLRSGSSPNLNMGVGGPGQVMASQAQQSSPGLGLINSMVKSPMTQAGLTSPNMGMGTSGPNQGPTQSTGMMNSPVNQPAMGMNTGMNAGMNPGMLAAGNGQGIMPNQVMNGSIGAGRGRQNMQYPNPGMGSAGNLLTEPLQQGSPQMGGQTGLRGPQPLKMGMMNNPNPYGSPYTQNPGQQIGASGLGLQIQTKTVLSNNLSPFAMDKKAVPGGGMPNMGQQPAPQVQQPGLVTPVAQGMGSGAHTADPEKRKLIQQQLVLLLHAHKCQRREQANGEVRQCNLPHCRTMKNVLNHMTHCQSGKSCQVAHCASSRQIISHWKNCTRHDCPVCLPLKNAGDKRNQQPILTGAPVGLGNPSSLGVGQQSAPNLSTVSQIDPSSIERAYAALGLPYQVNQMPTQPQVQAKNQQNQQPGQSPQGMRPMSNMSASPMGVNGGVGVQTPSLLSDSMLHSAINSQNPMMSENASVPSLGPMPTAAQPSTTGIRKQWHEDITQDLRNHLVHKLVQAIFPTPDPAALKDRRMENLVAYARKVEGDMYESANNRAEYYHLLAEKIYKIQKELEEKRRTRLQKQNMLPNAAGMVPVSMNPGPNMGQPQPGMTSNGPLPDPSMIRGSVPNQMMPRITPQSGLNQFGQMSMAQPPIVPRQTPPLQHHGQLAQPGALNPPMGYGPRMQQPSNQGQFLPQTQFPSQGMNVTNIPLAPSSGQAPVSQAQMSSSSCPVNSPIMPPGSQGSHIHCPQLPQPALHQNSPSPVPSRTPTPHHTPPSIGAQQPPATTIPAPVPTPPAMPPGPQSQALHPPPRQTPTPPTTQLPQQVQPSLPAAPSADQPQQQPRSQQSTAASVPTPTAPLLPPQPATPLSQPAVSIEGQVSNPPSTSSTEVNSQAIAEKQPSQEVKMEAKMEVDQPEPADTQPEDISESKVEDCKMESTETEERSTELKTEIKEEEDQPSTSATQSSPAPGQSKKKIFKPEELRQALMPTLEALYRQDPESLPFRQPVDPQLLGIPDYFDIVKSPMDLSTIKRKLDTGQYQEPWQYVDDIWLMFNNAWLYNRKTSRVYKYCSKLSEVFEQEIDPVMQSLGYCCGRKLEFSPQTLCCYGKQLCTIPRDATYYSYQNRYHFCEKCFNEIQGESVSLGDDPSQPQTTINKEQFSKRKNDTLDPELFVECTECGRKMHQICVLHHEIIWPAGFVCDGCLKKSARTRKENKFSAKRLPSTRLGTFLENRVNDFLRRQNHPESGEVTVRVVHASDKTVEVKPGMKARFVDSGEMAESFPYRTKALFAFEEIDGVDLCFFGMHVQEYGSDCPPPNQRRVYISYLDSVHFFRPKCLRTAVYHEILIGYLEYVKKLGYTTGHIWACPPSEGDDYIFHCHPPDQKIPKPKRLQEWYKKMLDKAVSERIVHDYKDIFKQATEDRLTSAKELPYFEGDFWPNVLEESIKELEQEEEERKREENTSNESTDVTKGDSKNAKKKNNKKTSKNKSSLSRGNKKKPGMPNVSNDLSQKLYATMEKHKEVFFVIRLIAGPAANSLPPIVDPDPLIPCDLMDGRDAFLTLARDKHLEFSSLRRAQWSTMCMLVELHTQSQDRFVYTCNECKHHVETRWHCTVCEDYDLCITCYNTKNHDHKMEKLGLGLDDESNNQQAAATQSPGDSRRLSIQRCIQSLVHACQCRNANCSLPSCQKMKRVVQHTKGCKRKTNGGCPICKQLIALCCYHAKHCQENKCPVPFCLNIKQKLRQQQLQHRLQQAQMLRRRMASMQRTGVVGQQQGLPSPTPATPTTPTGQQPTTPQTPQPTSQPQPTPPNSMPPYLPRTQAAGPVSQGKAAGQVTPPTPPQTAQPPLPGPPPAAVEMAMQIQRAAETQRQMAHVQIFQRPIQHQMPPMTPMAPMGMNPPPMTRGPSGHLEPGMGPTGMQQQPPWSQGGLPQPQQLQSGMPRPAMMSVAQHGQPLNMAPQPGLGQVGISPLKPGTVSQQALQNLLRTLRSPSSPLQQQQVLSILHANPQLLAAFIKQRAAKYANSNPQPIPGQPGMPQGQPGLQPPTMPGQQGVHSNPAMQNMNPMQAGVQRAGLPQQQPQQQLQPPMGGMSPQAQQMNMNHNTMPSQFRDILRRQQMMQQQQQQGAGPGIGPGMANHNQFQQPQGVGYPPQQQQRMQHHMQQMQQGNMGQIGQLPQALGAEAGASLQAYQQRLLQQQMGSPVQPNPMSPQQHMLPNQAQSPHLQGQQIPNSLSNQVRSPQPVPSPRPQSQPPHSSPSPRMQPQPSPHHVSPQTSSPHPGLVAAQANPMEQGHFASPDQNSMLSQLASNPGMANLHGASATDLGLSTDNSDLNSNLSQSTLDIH

One may read the IC50 as the midpoint of a concentration-inhibition curve. With `CC(=O)N1CCc2c(c(N3CCCc4cc(-c5cnn(C)c5)c(C(F)F)cc43)nn2C2CCN(CCN3CCC(C4CN(c5cccc6c5C(=O)N(C5CCC(=O)NC5=O)C6=O)C4)CC3)CC2)C1` (stereo not shown) [P-187, 4-(3-(1-(2-(4-(5-acetyl-3-(7-(difluoromethyl)-6-(1-methyl-1H-pyrazol-4-yl)-3,4-dihydroquinolin-1(2H)-yl)-4,5,6,7-tetrahydro-1H-pyrazolo[4,3-c]pyridin-1-yl)piperidin-1-yl)ethyl)piperidin-4-yl)azetidin-1-yl)-2-(2,6-dioxopiperidin-3-yl)isoindoline-1,3-dione], the inhibition at 0.01 µM on P300 is greater than 80%. In assay [1], this compound had a 50% inhibitory concentration (IC50) of 2.3 nM.
As for `CC(=O)N1CCc2c(c(N3CCCc4cc(-c5cnn(C)c5)c(C(F)F)cc43)nn2C2CCN(C(=O)CCN3CCN(Cc4cccc5c4n(C)c(=O)n5C4CCC(=O)NC4=O)CC3)CC2)C1` (stereo not shown) [P-208, 3-(4-((4-(3-(4-(5-Acetyl-3-(7-(difluoromethyl)-6-(1-methyl-1H-pyrazol-4-yl)-3,4-dihydroquinolin-1(2H)-yl)-4,5,6,7-tetrahydro-1H-pyrazolo[4,3-c]pyridin-1-yl)piperidin-1-yl)-3-oxopropyl)piperazin-1-yl)methyl)-3-methyl-2-oxo-2,3-dihydro-1H-benzo[d]imidazol-1-yl)piperidine-2,6-dione], the inhibition at 0.01 µM on P300 (p300, 10 nM, Table 4) was greater than 80%. Moreover, the midpoint of inhibition in assay [1], the IC50, lay at 19.7 nM.
`CC(=O)N1CCc2c(c(N3CCCc4cc(-c5cnn(C)c5)c(C(F)F)cc43)nn2C2CCN(C(=O)CCCNc3ccc(C(=O)NC4CCC(=O)NC4=O)c4ncccc34)CC2)C1` (stereo not shown) [P-253, 5-((4-(4-(5-acetyl-3-(7-(difluoromethyl)-6-(1-methyl-1H-pyrazol-4-yl)-3,4-dihydroquinolin-1(2H)-yl)-4,5,6,7-tetrahydro-1H-pyrazolo[4,3-c]pyridin-1-yl)piperidin-1-yl)-4-oxobutyl)amino)-N-(2,6-dioxopiperidin-3-yl)quinoline-8-carboxamide]: on P300 (p300, 10 nM, Table 4), the inhibition at 0.01 µM is greater than 80%. In assay [1], this compound displayed an IC50 of 2.6 nM.
The matching figures for `CC(=O)N1CCc2c(c(N3CCCc4cc(-c5cnn(C)c5)c(C(F)F)cc43)nn2C2CCN(Cc3cccc(COc4cccc5c4CN(C4CCC(=O)NC4=O)C5=O)c3)CC2)C1` (stereo not shown) [P-202, 3-(4-((3-((4-(5-acetyl-3-(7-(difluoromethyl)-6-(1-methyl-1H-pyrazol-4-yl)-3,4-dihydroquinolin-1(2H)-yl)-4,5,6,7-tetrahydro-1H-pyrazolo[4,3-c]pyridin-1-yl)piperidin-1-yl)methyl)benzyl)oxy)-1-oxoisoindolin-2-yl)piperidine-2,6-dione]: 50 to 80% and 3.1 nM.
As for `CC(=O)N1CCc2c(c(N3CCCc4cc(-c5cnn(C)c5)c(C(F)F)cc43)nn2C2CCN(CCN3CCOC(COc4cccc5c4C(=O)N(C4CCC(=O)NC4=O)C5=O)C3)CC2)C1` (stereo not shown) [P-189, 4-((4-(2-(4-(5-acetyl-3-(7-(difluoromethyl)-6-(1-methyl-1H-pyrazol-4-yl)-3,4-dihydroquinolin-1(2H)-yl)-4,5,6,7-tetrahydro-1H-pyrazolo[4,3-c]pyridin-1-yl)piperidin-1-yl)ethyl)morpholin-2-yl)methoxy)-2-(2,6-dioxopiperidin-3-yl)isoindoline-1,3-dione], the inhibition at 0.01 µM on P300 is greater than 80%. This compound displayed an IC50 in assay [1] of 38 nM.
In the case of `CC(=O)N1CCc2c(c(N3CCCc4cc(-c5cnn(C)c5)c(C(F)F)cc43)nn2C2CCN(C(=O)CCCN3CCC(C#Cc4cccc5c4n(C)c(=O)n5C4CCC(=O)NC4=O)CC3)CC2)C1` (stereo not shown) [P-229, 3-(4-((1-(4-(4-(5-acetyl-3-(7-(difluoromethyl)-6-(1-methyl-1H-pyrazol-4-yl)-3,4-dihydroquinolin-1(2H)-yl)-4,5,6,7-tetrahydro-1H-pyrazolo[4,3-c]pyridin-1-yl)piperidin-1-yl)-4-oxobutyl)piperidin-4-yl)ethynyl)-3-methyl-2-oxo-2,3-dihydro-1H-benzo[d]imidazol-1-yl)piperidine-2,6-dione], the inhibition at 0.01 µM at P300 (p300, 10 nM, Table 4) was greater than 80%. The compound further registered a half-inhibitory concentration (IC50) in assay [1] of 0.4 nM.
Regarding `CC(=O)N1CCc2c(c(N3CCCc4cc(-c5cnn(C)c5)c(C(F)F)cc43)nn2C2CCN(C(=O)CCN3CCN(Cc4ccc5c(c4)n(C)c(=O)n5C4CCC(=O)NC4=O)CC3)CC2)C1` (stereo not shown) [P-216, 3-(5-((4-(3-(4-(5-Acetyl-3-(7-(difluoromethyl)-6-(1-methyl-1H-pyrazol-4-yl)-3,4-dihydroquinolin-1(2H)-yl)-4,5,6,7-tetrahydro-1H-pyrazolo[4,3-c]pyridin-1-yl)piperidin-1-yl)-3-oxopropyl)piperazin-1-yl)methyl)-3-methyl-2-oxo-2,3-dihydro-1H-benzo[d]imidazol-1-yl)piperidine-2,6-dione], the inhibition at 0.01 µM at P300 (p300, 10 nM, Table 4) fell in the range of 20 to 50%. In assay [1], half-maximal inhibition (IC50) was put at 26.8 nM.
In the case of `CC(=O)N1CCc2c(c(N3CCCc4cc(-c5cnn(C)c5)c(C(F)F)cc43)nn2C2CCN(Cc3ccc(COc4cccc5c4C(=O)N(C4CCC(=O)NC4=O)C5)cc3)CC2)C1` (stereo not shown) [P-194, 3-(7-((4-((4-(5-acetyl-3-(7-(difluoromethyl)-6-(1-methyl-1H-pyrazol-4-yl)-3,4-dihydroquinolin-1(2H)-yl)-4,5,6,7-tetrahydro-1H-pyrazolo[4,3-c]pyridin-1-yl)piperidin-1-yl)methyl)benzyl)oxy)-1-oxoisoindolin-2-yl)piperidine-2,6-dione], on P300 (p300, 10 nM, Table 4), the inhibition at 0.01 µM is greater than 80%. In assay [1], this compound registered a 50% inhibitory concentration (IC50) of 4.9 nM.
The matching figures for `CC(=O)N1CCc2c(c(N3CCCc4cc(-c5cnn(C)c5)c(C(F)F)cc43)nn2C2CCN(C(=O)CCCCCCCCCC(=O)Nc3cccc(NC4CCC(=O)NC4=O)c3)CC2)C1` (stereo not shown) [P-265, 11-(4-(5-Acetyl-3-(7-(difluoromethyl)-6-(1-methyl-1H-pyrazol-4-yl)-3,4-dihydroquinolin-1(2H)-yl)-4,5,6,7-tetrahydro-1H-pyrazolo[4,3-c]pyridin-1-yl)piperidin-1-yl)-N-(3-((2,6-dioxopiperidin-3-yl)amino)phenyl)-11-oxoundecanamide]: less than 20% and 592 nM.
As to `CC(=O)N1CCc2c(c(N3CCCc4cc(-c5cnn(C)c5)c(C(F)F)cc43)nn2C2CCN(C(=O)CCCCCNc3ccc(C(=O)NC4CCC(=O)NC4=O)c4ncccc34)CC2)C1` (stereo not shown) [P-242, 5-((6-(4-(5-acetyl-3-(7-(difluoromethyl)-6-(1-methyl-1H-pyrazol-4-yl)-3,4-dihydroquinolin-1(2H)-yl)-4,5,6,7-tetrahydro-1H-pyrazolo[4,3-c]pyridin-1-yl)piperidin-1-yl)-6-oxohexyl)amino)-N-(2,6-dioxopiperidin-3-yl)quinoline-8-carboxamide], the inhibition at 0.01 µM on P300 (p300, 10 nM, Table 4) was greater than 80%. The IC50 in assay [1] was 1.1 nM.
Consider `CC(=O)N1CCc2c(c(N3CCCc4cc(-c5cnn(C)c5)c(C(F)F)cc43)nn2C2CCN(C(=O)CCN3CCN(CCCc4cccc5c4n(C)c(=O)n5C4CCC(=O)NC4=O)CC3)CC2)C1` (stereo not shown) [P-239, 3-(4-(3-(4-(3-(4-(5-Acetyl-3-(7-(difluoromethyl)-6-(1-methyl-1H-pyrazol-4-yl)-3,4-dihydroquinolin-1(2H)-yl)-4,5,6,7-tetrahydro-1H-pyrazolo[4,3-c]pyridin-1-yl)piperidin-1-yl)-3-oxopropyl)piperazin-1-yl)propyl)-3-methyl-2-oxo-2,3-dihydro-1H-benzo[d]imidazol-1-yl)piperidine-2,6-dione], for which, at P300 (p300, 10 nM, Table 4), the inhibition at 0.01 µM is less than 20%. In assay [1], the midpoint of inhibition, the IC50, lay at 263 nM.
